The structures appear in SMILES notation.

This test addresses T1, human CCR6 (Homo sapiens, UniProt P51684).
T1 construct: expressed in transfected cells; host or cells: HEK-293
T1 sequence (P51684 1-374): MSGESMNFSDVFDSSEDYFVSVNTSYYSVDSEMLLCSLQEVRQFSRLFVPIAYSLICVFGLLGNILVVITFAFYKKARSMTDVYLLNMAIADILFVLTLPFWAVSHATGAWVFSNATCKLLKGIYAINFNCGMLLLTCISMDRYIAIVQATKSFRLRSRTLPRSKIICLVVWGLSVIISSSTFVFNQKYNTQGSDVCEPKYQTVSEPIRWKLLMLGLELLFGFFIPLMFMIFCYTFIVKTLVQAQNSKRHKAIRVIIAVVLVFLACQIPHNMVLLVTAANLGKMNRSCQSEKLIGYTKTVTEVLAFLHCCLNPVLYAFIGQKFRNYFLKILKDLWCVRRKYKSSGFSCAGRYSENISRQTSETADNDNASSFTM
The test is described as follows: FLIPR assay (inhibition of CCL20-induced calcium signal). It is filed as cell-based. The following applies: HEK-293 cells expressing human CCR6; mean values where determined several times; read-out: FLIPR IC50. The method, boiled down: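 Dye-loaded HEK-293 cells expressing human CCR6 were preincubated with compound for 30 min at room temperature in the dark, then challenged with 10 nM CCL20 (final). Fluorescence was tracked on FLIPR, and baseline-subtracted peak emission over base after agonist addition gave inhibition dose-response curves for IC50.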
In general, IC50 refers to the midpoint of a concentration-inhibition curve. On to `CC(C)c1ccc([C@](O)(c2cncc(-c3noc(C4CCNC(=O)C4)n3)c2)C2(C)CN(C)C2)cc1` (single isomer, unassigned) [Example 516], for which the IC50 is 104 nM.

Take `CC(C)c1ccc([C@](O)(c2cncc(OC3CCCCC3)c2)C2(C)CN(C)C2)cc1` [Example 251]: the IC50 is 8.25 nM.

On to `COc1ccc(C(O)(c2cncc(N3CCCC3)c2)C2(C)CN(C)C2)cc1` (stereo not shown) [Example 151], for which the IC50 turned out to be 336 nM.

As to `CC(C)c1ccc([C@](O)(c2ccnc(N3C[C@@H](F)[C@@H](F)C3)c2)C2(C)CN(C)C2)cc1` [Example 163, (S)-[2-((3R,4S)-3,4-Difluoro-pyrrolidin-1-yl)-pyridin-4-yl]-(1,3-dimethyl-azetidin-3-yl)-(4-isopropyl-phenyl)-methanol], the IC50 is 24.6 nM.

On to `CC(C)c1ccc([C@](O)(c2cncc(CCC(C)(O)C(F)(F)F)c2)C2(C)CN(C)C2)cc1` (stereo partly shown) [Example 637], for which the IC50 came out at 46.3 nM.

For the compound `CC(C)c1ccc([C@](O)(c2cncc(-c3noc(C4(C)CCC(=O)NC4)n3)c2)C2(C)CN(C)C2)cc1` (stereo partly shown) [Example 480], the IC50 was found to be 128 nM.

Consider `CC(C)c1ccc([C@](O)(c2cnnc(N3CCC(C)(C)C3=O)c2)C2(C)CN(C)C2)cc1` [Example 434], for which the IC50 was 147 nM.

On to `CC(C)c1ccc([C@](O)(c2cncc(-c3noc(C4COC4)n3)c2)C2(C)CN(C3CC3)C2)cc1` [Example 453], for which the IC50 worked out at 58.1 nM.

Consider `COCCC(=O)N1CCC(c2nc(-c3cncc([C@@](O)(c4ccc(C(C)C)cc4)C4(C)CN(C)C4)c3)no2)CC1` [Example 373], for which the IC50 is 88.9 nM.

Take `CC(C)c1ccc([C@](O)(c2cncc(OCc3nc(C4CC4)no3)c2)C2(C)CN(C)C2)cc1` [Example 254]: the IC50 worked out at 19.3 nM.

Turning to `CC(C)c1ccc([C@](O)(c2cncc(-c3noc(CN4CCN(C5CC5)C4=O)n3)c2)C2(C)CN(C)C2)cc1` [Example 490], the IC50 was found to be 143 nM.

Regarding `Cc1coc(-c2cncc([C@@](O)(c3ccc(C(C)C)cc3)C3(C)CN(C)C3)c2)n1` [Example 300, (R)-(1,3-Dimethyl-azetidin-3-yl)-(4-isopropyl-phenyl)-[5-(4-methyl-oxazol-2-yl)-pyridin-3-yl]-methanol], the IC50 was found to be 40.8 nM.

For `CC(C)c1ccc([C@](O)(c2cncc(-c3nc(CC4(O)CCOCC4)no3)c2)C2(C)CN(C)C2)cc1` [Example 524, 4-(5-{5-[(R)-(1,3-Dimethyl-azetidin-3-yl)-hydroxy-(4-isopropyl-phenyl)-methyl]-pyridin-3-yl}-[1,2,4]oxadiazol-3-ylmethyl)-tetrahydro-pyran-4-ol], the IC50 came out at 178 nM.

As for `CC(C)c1ccc(C(O)(c2cncc(N3CCCC3)n2)C2(C)CN(C)C2)cc1` (stereo not shown) [Example 331, (1,3-Dimethyl-azetidin-3-yl)-(4-isopropyl-phenyl)-(6-pyrrolidin-1-yl-pyrazin-2-yl)-methanol], the IC50 came to 50.1 nM.

Regarding `CC(C)c1ccc([C@](O)(c2cncc(CCC3(O)CN(C(=O)OC(C)(C)C)C3)c2)C2(C)CN(C)C2)cc1` [Example 55], the IC50 is 65.8 nM.

`CC(C)c1ccc([C@](O)(c2cncc(-c3noc(C4(C)CCNCC4)n3)c2)C2(C)CN(C)C2)cc1` [Example 368]: the IC50 came to 271 nM.

In the case of `Cc1nc(C(C)(O)CCc2cncc([C@@](O)(c3ccc(C(C)C)cc3)C3(C)CN(C)C3)c2)cs1` (stereo partly shown) [Example 71], the IC50 worked out at 147 nM.

`CC(C)c1ccc([C@](O)(c2cncc(-c3noc(CN4C(=O)CCC4=O)n3)c2)C2(C)CN(C)C2)cc1` [Example 491]: the IC50 turned out to be 172 nM.

As to `CCC(O)(C#Cc1cncc([C@@](O)(c2ccc(C(C)C)cc2)C2(C)CN(C)C2)c1)c1ccccn1` (stereo partly shown) [Example 44], the IC50 was 63.3 nM.

For `Cc1cncc(C(O)(c2ccc(C(C)C)cc2)C2(C)CN(C)C2)c1` (stereo not shown) [Example 285], the IC50 was found to be 78 nM.

With `CC(C)c1ccc([C@](O)(c2cncc(CCc3cc4cccnc4[nH]3)c2)C2(C)CN(C)C2)cc1` [Example 413, (R)-(1,3-Dimethyl-azetidin-3-yl)-(4-isopropyl-phenyl)-{5-[2-(1H-pyrrolo[2,3-b]pyridin-2-yl)-ethyl]-pyridin-3-yl}-methanol], the IC50 amounted to 36.7 nM.

Turning to `C=C(CCO)c1cncc([C@@](O)(c2ccc(C(C)C)cc2)C2(C)CN(C)C2)c1` [Example 305, 3-{5-[(R)-(1,3-Dimethyl-azetidin-3-yl)-hydroxy-(4-isopropyl-phenyl)-methyl]-pyridin-3-yl}-but-3-en-1-ol], the IC50 turned out to be 121 nM.

For the compound `CC(C)c1ccc([C@](O)(c2cncc(-c3noc([C@@H]4CNC4=O)n3)c2)C2(C)CN(C)C2)cc1` [Example 364], the concentration for half-maximal inhibition (IC50) was determined as 142 nM.

Regarding `CC(=O)N1CCC(c2nc(-c3cncc([C@@](O)(c4ccc(OC(F)(F)F)cc4)C4(C)CN(C)C4)c3)no2)CC1` [Example 554], the IC50 was 117 nM.

For the compound `CC(C)c1ccc([C@](O)(c2cncc(OCCCO)c2)C2(C)CN(C)C2)cc1` [Example 249], the IC50 amounted to 78.4 nM.

Turning to `CC(C)c1ccc([C@](O)(c2cncc(N3C[C@H](C(C)(C)C)OC3=O)c2)C2(C)CN(C)C2)cc1` (single isomer, unassigned) [Example 167], the IC50 stood at 66.9 nM.

In the case of `CN1CC(C)([C@](O)(c2ccc(C(F)(F)F)cc2)c2cncc(N3CCCC3)c2)C1` [Example 281, (R)-(1,3-Dimethyl-azetidin-3-yl)-(5-pyrrolidin-1-yl-pyridin-3-yl)-(4-trifluoromethyl-phenyl)-methanol], the IC50 stood at 82.2 nM.

On to `CCC(O)(CCc1cncc(C(O)(c2ccc(C(C)C)cc2)C2(C)CN(C)C2)c1)c1cccc(OC)n1` (stereo not shown) [Example 80], for which the half-maximal inhibitory concentration (IC50) came to 10.5 nM.

In the case of `CC(C)c1ccc([C@](O)(c2cncc(CCC(C)(C)O)c2)C2(C)CN(C)C2)cc1` [Example 50], the concentration for half-maximal inhibition (IC50) stood at 90.2 nM.

Consider `CC(C)c1ccc([C@](O)(c2cncc(-c3ncc(C4CCOCC4)o3)c2)C2(C)CN(C)C2)cc1` [Example 323, (R)-(1,3-Dimethyl-azetidin-3-yl)-(4-isopropyl-phenyl)-{5-[5-(tetrahydro-pyran-4-yl)-oxazol-2-yl]-pyridin-3-yl}-methanol], for which the IC50 was 67.8 nM.

For `CC(C)c1ccc([C@](O)(c2cncc(N3CCC(F)(F)C3)c2)C2(C)CN(C)C2)cc1` [Example 180], the 50% inhibitory concentration (IC50) is 55.7 nM.

In the case of `CN1CC(C)(C(O)(c2ccc(C3CCC3)cc2)c2cncc(N3CCCC3)c2)C1` (stereo not shown) [Example 154], the IC50 came out at 36.8 nM.

`COC(=O)c1ccccc1CCc1cncc([C@@](O)(c2ccc(C(C)C)cc2)C2(C)CN(C)C2)c1` [Example 409]: the IC50 came to 48.8 nM.

In the case of `CC(=O)N1CCC(c2nc(-c3cncc([C@@](O)(c4ccc(C(C)C)cc4)C4(C)CN(C)C4)c3)no2)CC1` [Example 531, 1-[4-(3-{5-[(R)-(1,3-Dimethyl-azetidin-3-yl)-hydroxy-(4-isopropyl-phenyl)-methyl]-pyridin-3-yl}-[1,2,4]oxadiazol-5-yl)-piperidin-1-yl]-ethanone], the IC50 was determined as 90 nM.

As for `CCOC(=O)N(C)C1(c2nc(-c3cncc([C@@](O)(c4ccc(C(C)C)cc4)C4(C)CN(C)C4)c3)no2)CC1` [Example 390], the IC50 came out at 175 nM.

Turning to `COCCC1CC(=O)N(c2cncc([C@@](O)(c3ccc(C(C)C)cc3)C3(C)CN(C)C3)c2)C1` (stereo partly shown) [Example 221], the IC50 came out at 350 nM.

As to `CC(C)c1ccc([C@](O)(c2cncc(-c3noc(COC4CCOCC4)n3)c2)C2(C)CN(C)C2)cc1` [Example 126], the IC50 was 84.9 nM.

As to `CC(C)C(=O)N1CCC(O)(c2nc(-c3cncc([C@@](O)(c4ccc(C(C)C)cc4)C4(C)CN(C)C4)c3)no2)CC1` [Example 470], the IC50 came to 131 nM.

`CC(C)c1ccc([C@](O)(c2cncc(-c3noc(CC4(NC(=O)C5CCOCC5)CC4)n3)c2)C2(C)CN(C)C2)cc1` [Example 461]: the IC50 stood at 384 nM.

Consider `COc1ccc(C(O)(c2ccc(OC(F)(F)F)cc2)C2(C)CN(C)C2)cn1` (stereo not shown) [Example 146, (1,3-Dimethyl-azetidin-3-yl)-(6-methoxy-pyridin-3-yl)-(4-trifluoromethoxy-phenyl)-methanol], for which the IC50 amounted to 309 nM.

For the compound `CC(C)c1ccc([C@](O)(c2cncc(C#CC(C)(O)c3cc(C4CC4)ncn3)c2)C2(C)CN(C)C2)cc1` (stereo partly shown) [Example 619], the IC50 stood at 68.8 nM.

On to `COc1nccc(C(C)(O)C#Cc2cncc([C@@](O)(c3ccc(C(C)C)cc3)C3(C)CN(C)C3)c2)n1` (single isomer, unassigned) [Example 624], for which the IC50 was found to be 81.8 nM.

For `Cc1cc(C(C)(O)C#Cc2cncc([C@@](O)(c3ccc(C(C)C)cc3)C3(C)CN(C)C3)c2)nn1C` (single isomer, unassigned) [Example 401], the IC50 amounted to 117 nM.

As to `CC(C)c1ccc([C@](O)(c2cnnc(C3CCOCC3)c2)C2(C)CN(C)C2)cc1` [Example 428, (R)-(1,3-Dimethyl-azetidin-3-yl)-(4-isopropyl-phenyl)-[6-(tetrahydro-pyran-4-yl)-pyridazin-4-yl]-methanol], the IC50 stood at 598 nM.

As for `CC(C)c1ccc([C@](O)(c2cncc(-c3noc([C@@H]4CCCC(=O)N4)n3)c2)C2(C)CN(C)C2)cc1` [Example 361], the concentration for half-maximal inhibition (IC50) came out at 164 nM.

As to `COCCS(=O)(=O)N1CCC(c2noc(-c3cncc([C@@](O)(c4ccc(C(C)C)cc4)C4(C)CN(C)C4)c3)n2)CC1` [Example 528, (R)-(1,3-Dimethyl-azetidin-3-yl)-(4-isopropyl-phenyl)-(5-{3-[1-(2-methoxy-ethanesulfonyl)-piperidin-4-yl]-[1,2,4]oxadiazol-5-yl}-pyridin-3-yl)-methanol], the IC50 is 66.9 nM.
